Measured values as given in patent US10064942B2, “Copper-cysteamine and methods of use” (THE BOARD OF REGENTS, THE UNIVERSITY OF TEXAS SYSTEM, priority 2013, dated 2018).

How the values were obtained:
MCF-7 cells = assay: MTT cytotoxicity of Cu-Cy crystals in MCF-7 cells; format: cell-based, human; conditions: 24 h incubation
Experimental: The toxicity of Cu-Cy crystals in MCF-7 cells was evaluated using an MTT (3-(4,5-dimethylthiazol-2-yl)-2,5-diphenyltetrazoliumbromide) assay. 2 mg of the Cu-Cy crystals were well ground and sonicated before being dissolved in 1 mL of DI water (control) for the measurement.
Cytotoxicity was evaluated using the MTT assay. Approximately 2,000 cells/well MCF-7 cells were seeded into 96-well plates and allowed to grow for 48 hours in an incubator (Sanyo, Japan, 5% CO2, 37° C., humidified atmosphere). On the day of the experiment, after removing the culture medium, different volumes of media containing Cu-Cy particles were added to their respective wells and cytotoxicity was evaluated after 24 h of cell incubation

[1] = system: human hepatocellular liver cells (HEPT); assay: UV light (350 nm) destruction of liver cells, calcein/EthD-1 fluorescence imaging; format: cell-based
Text: FIGS. 11A-11D depict the comparison of UV light (350 nm) destruction on human hepatocellular liver cells (HEPT) without (top row, FIG. 11A and FIG. 11B) and with (bottom row, FIG. 11C and FIG. 11D) Cu-Cy crystals. […] The scale bar is always 100 μm.
FIGS. 11A-11D depict the effectiveness of the Cu-Cy material as causing cell death when irradiated with UV light or X-ray. For example, in FIGS. 11A-11D, the fluorescence images of human hepatocellular liver cells were taken before and after the UV light exposure (350 nm, for 2 minutes, from an OLYMPUS IX71 microscope). Calcein and Ethidium homodimer 1 (EthD-1) were used as the stains showing cell alive (green) and death (red) respectively.
Each of the images was taken right after the staining without further liver cell incubation.

[2] = system: human breast cancer (MCF-7) cells; assay: UV light (350 nm) destruction of MCF-7 cells, fluorescence imaging; format: cell-based; conditions: MCF-7 cells exposed to Cu-Cy and irradiated with UV light (350 nm)
Text: FIGS. 12A-12D depict the comparison of UV light (350 nm) destruction on human breast cancer (MCF-7) cells without (top row, FIG. 12A and FIG. 12B) and with (bottom row, FIG. 12C and FIG. 12D) Cu-Cy crystals. […] The scale bar is always 100 μm.
Photo-induced toxicity was then applied to cancer cells.

[3] = system: human breast cancer (MCF-7) cells; assay: X-ray destruction of MCF-7 cells, calcein/EthD-1 fluorescence imaging; format: cell-based
Text: FIGS. 13A-13D depict the comparison of X-ray (2 Gy) destruction on human breast cancer (MCF-7) cells without (top row, FIG. 14A and FIG. 14B) and with (bottom row, FIG. 14C and FIG. 14D) Cu-Cy crystals. […] The scale bar is always 100 μm.
As stated herein above, the disclosed Cu-Cy compound also absorbs X-rays and emits a luminescent spectrum. FIG. 13A-13D depicts the MCF-7 cell viabilities by fluorescence images with and without Cu-Cy crystals and with and without X-ray irradiation. As with UV radiation, X-ray irradiation of cells incubated with the disclosed Cu-Cy complex is also an effective method for causing cell death.
FIGS. 14A-D depict fluorescence images of MCF-7 cells before and after 1 Gy X-ray exposure by an OLYMPUS IX71 microscope. Calcein and ethidiumhomodimer 1 (EthD-1) were used as the stains showing cells alive (green) and dead (red) respectively. Each of the images was taken immediately after staining, without further cell incubation.
MCF-7 cells were seeded into two 6-well plates (A and B) at 5,000 cells/well and incubated for 48 h at 37° C. in a humidified atmosphere of 5% v/v CO2 at dark. On the day of the experiment, the culture medium was removed and 5 mL medium containing 0 and 40 μg/ml Cu-Cy particles were added to different wells. […] The cells were viewed under an OLYMPUS IX71 fluorescence microscope.

[4] = system: human prostate cancer (PC3) cells; assay: X-ray (2 Gy) destruction of PC3 cells, fluorescence imaging; format: cell-based; conditions: Cu-Cy crystals plus X-ray 2 Gy
Text: FIGS. 14A-14D depict the comparison of X-ray (2 Gy) destruction on human prostate cancer (PC3) cells without (top row, FIG. 14A and FIG. 14B) and with (bottom row, FIG. 14C and FIG. 14D) Cu-Cy crystals. […] The scale bar is always 100 μm.
As such, the combination of the disclosed Cu-Cy material and a source of radiation provides an effective method for inducing cell death.

MCF-7 tumors = format: in vivo, nude mice
Experimental: A suspension of 10×10^6MCF-7 cancer cell lines was injected subcutaneously into flanks on both shoulder and leg area of nude mice. Mice were monitored on a daily basis for the growth of tumors (FIG. 24). […] Saline (10 μL, as control, left shoulder) and Cu-Cy with concentration about 0.8 mg/mL (10 μL-right shoulder, 15 μL-left leg and 20 μL-right leg) were injected intra-tumorally. At one minute post-injection, mice were anesthetized with 2% (v/v) isofluorane, and tumors were irradiated with an X-ray dose of 5 Gy. Without X-ray treatment (top row), the tumors grew as time progressed, and there was no apparent size difference among Cu-Cy dosages of 10, 15, and 20 μl. Meanwhile, the tumors with no Cu-Cy (saline only) treatment were larger than the tumors with Cu-Cy treatment. […] The animals were sacrificed via CO2 inhalation and cervical […] on the day 13 of tumor growth. Absent X-ray radiation (top row), the tumors without Cu-Cy treatment grew to a somewhat larger volume than those treated by Cu-Cy, which indicates the minor toxicity from the Cu-Cy particles themselves. […] This is seen by comparing the two tumors treated with saline with and without X-ray radiation. For the treatment with 20 μL of Cu-Cy particles at 5 Gy dose, the tumor size is reduced to about 3 mm in diameter while the untreated tumor size is about 10 mm in diameter.

Stability in solution = format: physicochemical; conditions: aqueous solution and other common solvents

With “Cu3Cl(SR)2 wherein R is —CH2CH2NH2 [Cu-Cy]” the cellular viability (MCF-7 cells; Cu-Cy 0.1 μg/ml) was “about 95%”, the cellular viability (MCF-7 cells; Cu-Cy 200 μg/ml) was “about 70%” and the cell death ([1]; Cu-Cy crystals alone, no UV irradiation) was “does not result in significant cell death”. For the same substance, the cell death ([1]; Cu-Cy crystals plus UV light 350 nm for 2 minutes) was “significant cell death”, the cellular death [2] was “significant cellular death” and the cell destruction ([3]; Cu-Cy coupled with X-ray treatment (1 Gy; 2 Gy elsewhere in the source)) was “significant cell destruction”. For the same substance, the cell death ([3]; Cu-Cy particles alone, no X-ray) was “little cell death”, the cell death [4] was “Significant cell death” and the “tumor size (diameter)” value (MCF-7 tumors; 20 μL Cu-Cy (about 0.8 mg/mL) intra-tumoral, X-ray 5 Gy, day 13) was “about 3 mm”. The “toxicity of Cu-Cy particles themselves in vivo” value (MCF-7 tumors; mouse, in vivo) was “slight toxicity in vivo”, the tumor growth (MCF-7 tumors; with X-ray radiation 5 Gy, 15 and 20 μL Cu-Cy dosages) was “greatly reduced” and the “tumor size or growth” value (MCF-7 tumors; without X-ray, Cu-Cy 10, 15, 20 μL) was “does not significantly reduce tumor size or growth”. For the same substance, the stability (Stability in solution) was “stable in aqueous solution”.
